Source: US6740639B1, “Inclusion complees of a high potent opioid peptide, pharmaceutical compositions and method of treatment” (Council of Scientific & Industrial Research, priority 2000, dated 2004)
Non-standard residues stand in square brackets, D forms with d. No end group written: not given here. Phe(4-NO2) = N[C@@H](Cc1ccc([N+](=O)[O-])cc1)C(=O)O

Experiments:
[1] = LD50 in mice; settings: mouse, in vivo, ip
Experimental: It is evident from above table that the ED50 of beta CD complex is about one third than the compound L-Tyrosyl-D-alanyl-glycyl-N-methylphenylalanyl-glycyl-isopropylamide by subcutaneous route and was one half by oral route. The LD50 of the compound L-Tyrosyl-D-alanyl-glycyl-N-methylphenylalanyl-glycyl-isopropylamide is 1000 mg/Kg i.p., and that of the complex is >10,000 mg/kg P. O. in mice.

[2] = tested on: rats; assay: 30 days toxicity study by subcutaneous route in rat; assay type: in vivo; settings: s.c. once daily 30 days, 7.5, 15.0 and 30.0 mg/kg
Experimental: (§1) 30 days toxicity study or L-Tyrosyl-D-alanyl-glycyl-N-methylphenylalanyl-glycyl-isopropylamide in rat and rhesus monkey by subcutaneous route.
(§2) Compound L-Tyrosyl-D-alanyl-glycyl-N-methylphenytalanyt-glycyl-isopropylamide dissolved in saline was given daily by subcutaneous route to groups of rats (n=10 males and 10 females in each group) and rhesus monkeys ([…] and 2 females in each group) once daily for 30 consecutive days. The dose levels used in rats were 0.0, 7.5, 15.0 and 30.0 mg/kg and in monkeys 0.0, 3.75, 7.5 and 15 mg/kg. Dose levels were selected on the basis of rat ED of 3.0 mg/kg and extrapolation thereof in the monkey.
(§3) A careful general inspection of the animals was done at least once each day Cage-side observations included changes in skin and fur, eyes and mucous membranes, general activity and behavior and also general signs of abnormal functioning of respiratory, circulators, autonomic and central nervous system and somatomotor activity. Body weights (weekly in rats initial and day 30 in monkeys), daily food (rat and monkeys) and water (rat only) consumption and parameters of hematology urinalysis and blood biochemistry of the animals was recorded All the animals were sacrificed at the end of 30 days. Necropsy was performed and histophathological examination of all the important organs and tissues were done. […]

[3] = tested on: rhesus monkeys; assay: 30 days toxicity study by subcutaneous route in rhesus monkey; assay type: in vivo; settings: s.c. once daily 30 days, 3.75, 7.5 and 15 mg/kg
Experimental: as §1, §2, §3

[4] = Chronic and subacute toxicity studies (background); settings: in vivo
[5] = Addiction liabilities and tolerance (background); assay type: in vivo; settings: compared to morphine
[6] = CNS and cardiovascular effects (background); settings: in vivo
[7] = tested on: leucine amino peptidase; settings: enzyme hydrolysis with leucine amino peptidase; cited from earlier work
[8] = cited from earlier work; for analgesic potency compared with morphine: systemic administration; for analgesic effect: systemic route of administration
[9] = tested on: μ and δ receptors; settings: cited from earlier work

With `CC(C)NC(=O)CNC(=O)[C@H](Cc1ccccc1)N(C)C(=O)CNC(=O)[C@@H](C)NC(=O)[C@@H](N)Cc1ccc(O)cc1` [L-Tyrosyl-D-alanyl-glycyl-N-methylphenylalanyl-glycyl-isopropylamide] the LD50 [1] was 1000 mg/kg, the 30-day toxicity finding [2] was “safe” and the 30-day toxicity finding [3] was “safe”. For the same compound, the “chronic and subacute toxicity finding” value [4] was “safe and did not produce any noticeable toxic side effects”, the “tolerance and addiction properties” value [5] was “significantly reduced tolerance and addiction properties as compared to morphine” and the “CNS effects like sedation and respiratory depression” value [6] was “virtually devoid of any major CNS effects”. The cardiovascular effects [6] was “virtually devoid of any significant cardiovascular effects”.
In the case of Leu-enkephalin, the half life [7] is given as 45 min.
For “Tyr-Arg-Gly-Phe(pNO2)-Pro-NH2 (YRG[Phe(4-NO2)]P-NH2; N-terminus assumed; SMILES N=C(N)NCCC[C@H](NC(=O)[C@@H](N)Cc1ccc(O)cc1)C(=O)NCC(=O)N[C@@H](Cc1ccc([N+](=O)[O-])cc1)C(=O)N1CCC[C@H]1C(N)=O) [BW-443C, enkephalin analog]”, the “analgesic potency compared with morphine” value [8] is listed as “more potent analgesic than morphine”.
For Tyr-D-Ala-Gly,-Met(o)-01 [FK-33-824], the opioid receptor selectivity [9] is given as “only slight preference for p-receptors” and the analgesic effect [8] is given as “strong analgesic effect”.
For “Tyr-D-Ala-Gly-Phe-MeMet-NH2 [met-kephamid]”, the opioid receptor selectivity [9] is given as “essentially non-elective for μ and δ receptors” and the analgesic effect [8] is given as “strong analgesic effect”.
For Y[dM]GFP-NH2, the “analgesic potency compared with morphine” value [8] is listed as “more potent analgesic than morphine”.
